Literature values in patent US20220087927A1, “ANTIMICROBIAL AGENT” (priority 2020, published 2022).

How the values were obtained:
Conditions in all cases: suspension 10^7-10^8 per ml
Pseudomonas aeruginosa = tested on: Pseudomonas aeruginosa
[1] = tested on: E. coli (Escherichia coli)
[2] = tested on: Candida (candida albicians)
[3] = tested on: Koji mold (asprogillus brasiliensis)
Staphylococcus aureus = tested on: Staphylococcus aureus

Row | Compound | MIC (minimum growth prevention concentration) (Pseudomonas aeruginosa) [%] | MIC (minimum growth prevention concentration) [1] [%] | MIC (minimum growth prevention concentration) [2] [%] | MIC (minimum growth prevention concentration) [3] [%] | MIC (minimum growth prevention concentration) (Staphylococcus aureus) [%]
1 | OCCCCO [butylene glycol] | 8 | 10 | 14 | 18 | 16
2 | CCO [ethanol] | 5 | 5 | 7 | 5 | 9
